According to patent publication US10072026B2, “Crystalline form of 3-((1R,3s,5S)-3-((7-((5-methyl-1H-pyrazol-3-yl)amino)-1,6-naphthyridin-5-yl)amino)-8-azabicyclo[3.2.1]octan-8-yl)propanenitrile” (priority 2015, dated 2018):

What was measured:
[1] = target: JAK1 (Homo sapiens (Human), UniProt P23458); assay: LanthaScreen JAK biochemical assay (JAK1)
[2] = target: JAK2 (Homo sapiens (Human), UniProt O60674); assay: LanthaScreen JAK biochemical assay (JAK2)
[3] = target: JAK3 (Homo sapiens (Human), UniProt P52333); assay: LanthaScreen JAK biochemical assay (JAK3)
[4] = target: Tyk2 (Homo sapiens (Human), UniProt P29597); assay: LanthaScreen JAK biochemical assay (Tyk2)
[5] = test system: IL-4 induced STAT6 phosphorylation in THP-1 human monocytic cells; assay: Cellular JAK potency assay, THP-1
[6] = test system: IL-13 induced STAT6 phosphorylation in BEAS-2B human lung epithelial cells; assay: AlphaScreen cellular JAK potency assay, BEAS-2B; conditions: BEAS-2B cells, IL-13 induced STAT6 phosphorylation
[7] = IL-4 induced STAT6 phosphorylation, THP-1 cells
[8] = THP-1 cells, IL-4 induced STAT6 phosphorylation

Tyk2, sequence (P29597 whole entry): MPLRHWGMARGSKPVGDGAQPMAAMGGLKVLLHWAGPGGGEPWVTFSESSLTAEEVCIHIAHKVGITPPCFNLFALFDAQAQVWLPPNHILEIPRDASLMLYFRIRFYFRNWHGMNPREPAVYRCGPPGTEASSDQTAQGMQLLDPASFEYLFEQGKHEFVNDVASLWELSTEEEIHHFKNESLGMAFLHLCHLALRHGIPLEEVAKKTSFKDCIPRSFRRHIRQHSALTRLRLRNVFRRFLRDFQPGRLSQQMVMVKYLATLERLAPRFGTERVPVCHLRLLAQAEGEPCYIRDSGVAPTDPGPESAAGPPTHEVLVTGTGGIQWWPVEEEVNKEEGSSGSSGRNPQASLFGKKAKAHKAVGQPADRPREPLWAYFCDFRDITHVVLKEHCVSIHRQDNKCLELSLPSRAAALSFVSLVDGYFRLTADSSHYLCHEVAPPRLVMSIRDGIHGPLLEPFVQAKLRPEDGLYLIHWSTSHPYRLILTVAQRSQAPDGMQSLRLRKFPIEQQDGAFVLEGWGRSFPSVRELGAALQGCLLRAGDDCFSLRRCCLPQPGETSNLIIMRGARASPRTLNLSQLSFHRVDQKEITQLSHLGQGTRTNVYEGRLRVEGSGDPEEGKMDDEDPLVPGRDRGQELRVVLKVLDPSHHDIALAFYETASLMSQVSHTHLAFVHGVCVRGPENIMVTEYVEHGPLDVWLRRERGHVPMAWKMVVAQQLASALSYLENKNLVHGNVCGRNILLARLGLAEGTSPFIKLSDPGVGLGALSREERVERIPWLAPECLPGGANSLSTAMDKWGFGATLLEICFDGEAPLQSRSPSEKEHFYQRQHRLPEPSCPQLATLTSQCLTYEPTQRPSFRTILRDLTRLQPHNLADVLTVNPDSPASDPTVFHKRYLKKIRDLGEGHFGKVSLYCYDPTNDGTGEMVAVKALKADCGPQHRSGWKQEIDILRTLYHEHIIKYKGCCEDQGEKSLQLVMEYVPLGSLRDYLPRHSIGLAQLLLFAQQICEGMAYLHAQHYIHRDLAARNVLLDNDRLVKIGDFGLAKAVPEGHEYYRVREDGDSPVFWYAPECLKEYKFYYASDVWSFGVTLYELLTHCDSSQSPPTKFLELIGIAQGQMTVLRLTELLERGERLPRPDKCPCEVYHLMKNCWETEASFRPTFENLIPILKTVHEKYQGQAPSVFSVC
JAK2, sequence (O60674 whole entry): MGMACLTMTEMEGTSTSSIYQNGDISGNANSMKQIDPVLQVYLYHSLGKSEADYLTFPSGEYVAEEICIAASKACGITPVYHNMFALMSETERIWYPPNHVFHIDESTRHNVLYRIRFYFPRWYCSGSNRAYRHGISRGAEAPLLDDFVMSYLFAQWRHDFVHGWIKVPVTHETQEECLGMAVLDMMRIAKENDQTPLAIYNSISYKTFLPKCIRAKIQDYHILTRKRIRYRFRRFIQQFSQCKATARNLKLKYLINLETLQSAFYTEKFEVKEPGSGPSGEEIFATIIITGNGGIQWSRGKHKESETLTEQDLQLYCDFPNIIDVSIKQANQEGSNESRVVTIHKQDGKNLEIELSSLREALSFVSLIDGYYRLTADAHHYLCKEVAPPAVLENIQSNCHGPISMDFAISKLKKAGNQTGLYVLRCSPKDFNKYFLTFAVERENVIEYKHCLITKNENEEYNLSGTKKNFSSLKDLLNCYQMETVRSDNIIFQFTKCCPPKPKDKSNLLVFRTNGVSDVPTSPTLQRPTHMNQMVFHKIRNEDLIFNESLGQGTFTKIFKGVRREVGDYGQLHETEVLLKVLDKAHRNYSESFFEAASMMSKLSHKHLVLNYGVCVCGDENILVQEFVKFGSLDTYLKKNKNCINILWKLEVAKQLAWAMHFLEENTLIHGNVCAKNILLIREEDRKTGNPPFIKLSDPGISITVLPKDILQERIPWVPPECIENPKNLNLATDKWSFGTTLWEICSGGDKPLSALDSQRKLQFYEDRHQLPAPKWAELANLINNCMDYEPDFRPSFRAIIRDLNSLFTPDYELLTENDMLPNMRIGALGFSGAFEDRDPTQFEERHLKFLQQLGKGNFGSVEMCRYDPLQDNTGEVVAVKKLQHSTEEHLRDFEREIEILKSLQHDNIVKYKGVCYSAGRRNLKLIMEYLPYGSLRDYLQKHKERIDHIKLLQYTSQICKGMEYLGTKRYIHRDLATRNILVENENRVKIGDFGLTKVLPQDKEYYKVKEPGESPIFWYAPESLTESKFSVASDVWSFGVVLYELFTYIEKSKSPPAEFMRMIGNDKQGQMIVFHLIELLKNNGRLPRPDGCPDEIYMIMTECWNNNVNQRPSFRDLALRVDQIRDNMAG
JAK1, sequence (P23458 whole entry): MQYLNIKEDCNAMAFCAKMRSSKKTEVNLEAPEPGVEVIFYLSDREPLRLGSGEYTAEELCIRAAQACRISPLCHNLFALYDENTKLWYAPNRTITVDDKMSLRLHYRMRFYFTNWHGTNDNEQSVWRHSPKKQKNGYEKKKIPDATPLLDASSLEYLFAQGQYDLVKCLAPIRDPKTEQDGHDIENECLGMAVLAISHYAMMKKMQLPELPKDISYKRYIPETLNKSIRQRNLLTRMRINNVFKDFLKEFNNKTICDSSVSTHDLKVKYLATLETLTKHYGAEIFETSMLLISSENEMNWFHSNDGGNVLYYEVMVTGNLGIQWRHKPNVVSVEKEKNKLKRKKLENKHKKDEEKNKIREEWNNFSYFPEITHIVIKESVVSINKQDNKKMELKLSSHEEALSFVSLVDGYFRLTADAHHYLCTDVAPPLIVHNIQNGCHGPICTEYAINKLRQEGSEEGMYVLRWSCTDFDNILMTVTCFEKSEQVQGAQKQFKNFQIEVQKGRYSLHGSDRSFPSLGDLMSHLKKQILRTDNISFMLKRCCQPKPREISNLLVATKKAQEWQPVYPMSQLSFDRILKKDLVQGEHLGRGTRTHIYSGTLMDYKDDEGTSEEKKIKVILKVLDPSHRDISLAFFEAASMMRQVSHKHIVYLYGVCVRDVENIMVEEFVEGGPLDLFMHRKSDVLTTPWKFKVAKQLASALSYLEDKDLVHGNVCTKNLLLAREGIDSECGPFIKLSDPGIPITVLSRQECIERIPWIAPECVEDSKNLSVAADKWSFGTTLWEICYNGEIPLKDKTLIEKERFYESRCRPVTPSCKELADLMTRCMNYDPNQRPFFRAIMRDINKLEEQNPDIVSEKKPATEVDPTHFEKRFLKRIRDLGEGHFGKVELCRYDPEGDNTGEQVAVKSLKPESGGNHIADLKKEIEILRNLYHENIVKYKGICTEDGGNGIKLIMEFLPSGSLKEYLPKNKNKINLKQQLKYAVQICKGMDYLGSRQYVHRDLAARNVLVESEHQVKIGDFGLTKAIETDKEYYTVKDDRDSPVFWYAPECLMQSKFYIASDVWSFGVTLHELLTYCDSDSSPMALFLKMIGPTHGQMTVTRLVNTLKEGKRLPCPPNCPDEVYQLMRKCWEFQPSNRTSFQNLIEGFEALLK

SMILES | JAK 1 (pKi) [1] | JAK 2 (pKi) [2] | JAK 3 (pKi) [3] | Tyk 2 (pKi) [4] | THP-1 IL4 pIC50 [5, 7] | THP-1 IL4 pIC50 [5, 8] | BEAS2B pIC50 [6]
CCC(C)C(=O)N1C2CCCC1CC(Nc1nc(Nc3cc(C)[nH]n3)cc3ncccc13)C2 (stereo not shown) [Example 2-18] | B (B represents a pKi value between 9 and 10 (Ki between 1 nM and 0.1 nM)) | B (B represents a pKi value between 9 and 10 (Ki between 1 nM and 0.1 nM)) | C (C represents a pKi value between 7 and 9 (Ki between 100 nM and 1 nM)) | B (B represents a pKi value between 9 and 10 (Ki between 1 nM and 0.1 nM)) | A (A represents a pEC50 value≥7.5 (EC50≤32 nM)) |  | 
Cc1cc(Nc2cc3nc(CN4CCC(F)(F)CC4)ccc3c(N[C@@H]3C[C@H]4CC[C@@H](C3)N4CC(C)C)n2)n[nH]1 [Example 5-34] | B (B represents a pKi value between 9 and 10 (Ki between 1 nM and 0.1 nM)) | B (B represents a pKi value between 9 and 10 (Ki between 1 nM and 0.1 nM)) | C (C represents a pKi value between 7 and 9 (Ki between 100 nM and 1 nM)) | B (B represents a pKi value between 9 and 10 (Ki between 1 nM and 0.1 nM)) | B (B represents a pEC50 value between 6.7 and 7.5 (EC50 between 200 nM and 32 nM)) |  | 
Cc1cc(Nc2cc3nc(CS(C)(=O)=O)ccc3c(N[C@@H]3C[C@H]4CC[C@@H](C3)N4CCC(F)(F)F)n2)n[nH]1 [Example 5-43] | B (B represents a pKi value between 9 and 10 (Ki between 1 nM and 0.1 nM)) | B (B represents a pKi value between 9 and 10 (Ki between 1 nM and 0.1 nM)) | C (C represents a pKi value between 7 and 9 (Ki between 100 nM and 1 nM)) | B (B represents a pKi value between 9 and 10 (Ki between 1 nM and 0.1 nM)) | B (B represents a pEC50 value between 6.7 and 7.5 (EC50 between 200 nM and 32 nM)) |  | 
Cc1cnc2cc(Nc3cc(C)[nH]n3)nc(N[C@@H]3C[C@H]4CC[C@@H](C3)N4C(=O)OCC(C)C)c2c1 [Example 6-3] | B (B represents a pKi value between 9 and 10 (Ki between 1 nM and 0.1 nM)) | B (B represents a pKi value between 9 and 10 (Ki between 1 nM and 0.1 nM)) | C (C represents a pKi value between 7 and 9 (Ki between 100 nM and 1 nM)) |  |  | B (B represents a pEC50 value between 6.7 and 7.5 (EC50 between 200 nM and 32 nM)) | B (B represents a pEC50 value between 6.7 and 7.5 (EC50 between 200 nM and 32 nM))
Cc1cnc2cc(Nc3cc(C)[nH]n3)nc(N[C@@H]3C[C@H]4CCC[C@@H](C3)N4Cc3ccncc3)c2c1 [Example 6-10] | B (B represents a pKi value between 9 and 10 (Ki between 1 nM and 0.1 nM)) | B (B represents a pKi value between 9 and 10 (Ki between 1 nM and 0.1 nM)) | C (C represents a pKi value between 7 and 9 (Ki between 100 nM and 1 nM)) | B (B represents a pKi value between 9 and 10 (Ki between 1 nM and 0.1 nM)) |  | B (B represents a pEC50 value between 6.7 and 7.5 (EC50 between 200 nM and 32 nM)) | 
COc1cnc2cc(Nc3cc(C)[nH]n3)nc(NC3CC4CCCC(C3)N4C(=O)C(C)O)c2c1 (stereo not shown) [Example 6-27] | B (B represents a pKi value between 9 and 10 (Ki between 1 nM and 0.1 nM)) | B (B represents a pKi value between 9 and 10 (Ki between 1 nM and 0.1 nM)) | C (C represents a pKi value between 7 and 9 (Ki between 100 nM and 1 nM)) | C (C represents a pKi value between 7 and 9 (Ki between 100 nM and 1 nM)) |  | B (B represents a pEC50 value between 6.7 and 7.5 (EC50 between 200 nM and 32 nM)) | 
CCC(C)C(=O)N1C2CCC1CC(Nc1nc(Nc3cc(C)[nH]n3)cc3ncc(C(=O)OC)cc13)C2 (stereo not shown) [Example 6-38] | B (B represents a pKi value between 9 and 10 (Ki between 1 nM and 0.1 nM)) | B (B represents a pKi value between 9 and 10 (Ki between 1 nM and 0.1 nM)) | C (C represents a pKi value between 7 and 9 (Ki between 100 nM and 1 nM)) | C (C represents a pKi value between 7 and 9 (Ki between 100 nM and 1 nM)) |  | B (B represents a pEC50 value between 6.7 and 7.5 (EC50 between 200 nM and 32 nM)) | 
Cc1cc(Nc2nc(N[C@@H]3C[C@H]4CC[C@@H](C3)N4S(C)(=O)=O)c3cccnc3c2F)n[nH]1 [Example 8-2] | B (B represents a pKi value between 9 and 10 (Ki between 1 nM and 0.1 nM)) | B (B represents a pKi value between 9 and 10 (Ki between 1 nM and 0.1 nM)) | C (C represents a pKi value between 7 and 9 (Ki between 100 nM and 1 nM)) |  |  | A (A represents a pEC50 value≥7.5 (EC50≤32 nM)) | C (C represents a pEC50 value<6.7 (EC50>200 nM))
Cc1cc(Nc2nc(N[C@@H]3C[C@H]4CCC[C@@H](C3)N4S(=O)(=O)c3cncc(F)c3)c3cccnc3c2F)n[nH]1 [Example 8-13] | B (B represents a pKi value between 9 and 10 (Ki between 1 nM and 0.1 nM)) | B (B represents a pKi value between 9 and 10 (Ki between 1 nM and 0.1 nM)) | C (C represents a pKi value between 7 and 9 (Ki between 100 nM and 1 nM)) |  |  | B (B represents a pEC50 value between 6.7 and 7.5 (EC50 between 200 nM and 32 nM)) | A (A represents a pEC50 value≥7.5 (EC50≤32 nM))
Cc1cc(Nc2nc(N[C@@H]3C[C@H]4CCC[C@@H](C3)N4Cc3ccncc3)c3cccnc3c2F)n[nH]1 [Example 8-14] | B (B represents a pKi value between 9 and 10 (Ki between 1 nM and 0.1 nM)) | B (B represents a pKi value between 9 and 10 (Ki between 1 nM and 0.1 nM)) | C (C represents a pKi value between 7 and 9 (Ki between 100 nM and 1 nM)) |  |  | A (A represents a pEC50 value≥7.5 (EC50≤32 nM)) | A (A represents a pEC50 value≥7.5 (EC50≤32 nM))
Cc1cnc2c(F)c(Nc3cc(C)[nH]n3)nc(N[C@@H]3C[C@H]4CCC[C@@H](C3)N4S(=O)(=O)c3cccnc3)c2c1 [Example 8-24] | B (B represents a pKi value between 9 and 10 (Ki between 1 nM and 0.1 nM)) | B (B represents a pKi value between 9 and 10 (Ki between 1 nM and 0.1 nM)) | C (C represents a pKi value between 7 and 9 (Ki between 100 nM and 1 nM)) |  |  | B (B represents a pEC50 value between 6.7 and 7.5 (EC50 between 200 nM and 32 nM)) | B (B represents a pEC50 value between 6.7 and 7.5 (EC50 between 200 nM and 32 nM))
